{"source": "ChEMBL document CHEMBL5661967", "about": "“Antitumor activity of HKI-272, an orally active, irreversible inhibitor of the HER-2 tyrosine kinase” (Cancer Res, 2004)", "target": "Receptor tyrosine-protein kinase erbB-2 (Homo sapiens, UniProt P04626)", "sequence (P04626 whole entry, the tested form may be a part)": "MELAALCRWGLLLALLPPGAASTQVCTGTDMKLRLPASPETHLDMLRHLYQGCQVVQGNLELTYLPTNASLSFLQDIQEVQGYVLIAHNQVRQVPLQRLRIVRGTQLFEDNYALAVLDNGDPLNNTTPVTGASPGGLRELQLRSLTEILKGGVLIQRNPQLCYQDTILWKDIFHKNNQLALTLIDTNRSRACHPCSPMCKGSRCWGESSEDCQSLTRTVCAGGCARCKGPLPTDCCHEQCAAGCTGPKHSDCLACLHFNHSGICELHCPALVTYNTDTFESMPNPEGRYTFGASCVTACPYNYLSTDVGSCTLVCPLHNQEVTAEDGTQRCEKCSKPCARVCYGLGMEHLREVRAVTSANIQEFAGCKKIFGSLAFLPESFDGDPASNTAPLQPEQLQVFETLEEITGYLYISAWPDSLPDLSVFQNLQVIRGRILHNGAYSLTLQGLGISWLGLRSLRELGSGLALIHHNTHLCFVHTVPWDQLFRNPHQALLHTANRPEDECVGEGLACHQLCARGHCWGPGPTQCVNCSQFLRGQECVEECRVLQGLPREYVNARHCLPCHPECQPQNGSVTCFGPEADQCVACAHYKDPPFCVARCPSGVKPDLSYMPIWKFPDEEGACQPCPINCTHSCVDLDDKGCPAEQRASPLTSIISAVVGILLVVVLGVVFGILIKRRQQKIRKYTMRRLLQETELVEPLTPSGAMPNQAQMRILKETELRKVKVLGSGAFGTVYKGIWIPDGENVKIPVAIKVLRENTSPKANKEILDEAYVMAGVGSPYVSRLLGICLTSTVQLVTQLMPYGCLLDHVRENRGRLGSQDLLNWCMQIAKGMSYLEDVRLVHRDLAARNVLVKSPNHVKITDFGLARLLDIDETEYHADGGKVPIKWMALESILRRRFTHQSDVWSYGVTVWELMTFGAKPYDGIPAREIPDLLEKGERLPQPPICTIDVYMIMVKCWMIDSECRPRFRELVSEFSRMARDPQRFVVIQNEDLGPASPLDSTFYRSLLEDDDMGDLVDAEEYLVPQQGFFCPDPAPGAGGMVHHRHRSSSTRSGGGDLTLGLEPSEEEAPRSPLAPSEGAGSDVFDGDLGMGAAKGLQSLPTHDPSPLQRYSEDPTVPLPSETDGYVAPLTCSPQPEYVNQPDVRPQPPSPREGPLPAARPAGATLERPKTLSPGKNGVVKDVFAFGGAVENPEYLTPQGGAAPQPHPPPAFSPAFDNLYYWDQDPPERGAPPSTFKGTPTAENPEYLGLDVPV", "experiment": "Inhibition of recombinant N-terminal His6-tagged HER2 cytoplasmic domain (676 to 1255 residues) (unknown origin) expressed in baculovirus infected Sf9 insect cells assessed as reduction in autophosphorylation preincubated for 15 mins followed by ATP addition and measured after 1 hr by ELISA"}
{"smiles": "CCOc1cc2ncc(C#N)c(Nc3ccc(F)c(Cl)c3)c2cc1NC(=O)/C=C/CN(C)C", "note": "[PELITINIB]", "values": [{"measurement": "IC50", "result": 1.26, "unit": "µM"}]}
